Assay results reported in ChEMBL document CHEMBL3885861, “Open TG-GATES”.

Organism: Rattus norvegicus
Assay: Open TG-GATES - Regimen: Daily Repeat
Assay type: toxicity, organism-based, Sprague-Dawley
Set-up: regimen Daily Repeat, gender Male, age 6 weeks
Conditions: in vivo, po, route gavage; for APTT / Bas / Eos / Fbg / Ht / MCH / MCHC / MCV / Mono / Neu / PT / RBC / Ret: tissue Blood; for KIDNEY_L / KIDNEY_R / KIDNEY_TOTAL: tissue Kidney; for ALP / ALT / AST / BUN / CRE / Ca / Cl / DBIL / GLC / IP / K / LDH / Na / RALB / TBIL / TC / TG / TP / gamma-GTP / PL: tissue Plasma
[1] = 200 mg/kg, 72 h, dose level Middle, time 3 day
[2] = 200 mg/kg, […], dose level Middle, time 7 day
[3] = 200 mg/kg, […], dose level Middle, time 14 day
[4] = 200 mg/kg, […], dose level Middle, time 28 day
[5] = 600 mg/kg, 72 h, dose level High, time 3 day

## CC(=O)Nc1nnc(S(N)(=O)=O)s1 [ACETAZOLAMIDE]
[1]
  APTT: 19.2 s
  Bas: 0%
  Eos: 1.2%
  Fbg: 313.4 mg/dL
  Ht: 39.9%
  MCH: 21.3 pg
  MCHC: 34.1%
  MCV: 62.6 fL
  Mono: 3%
  Neu: 18.6%
  PT: 16.5 s
  RBC: 637.6 x10_4/ul
  Ret: 5.3%
  KIDNEY_L: 1.1 g
  KIDNEY_R: 1 g
  KIDNEY_TOTAL: 2.1 g
  ALP: 1836.6 IU/L
  ALT: 45.2 IU/L
  AST: 64.2 IU/L
  BUN: 20 mg/dL
  CRE: 0.2 mg/dL
  Ca: 10.8 mg/dL
  Cl: 109.6 meq/L
  DBIL: 0 mg/dL
  GLC: 175.2 mg/dL
  IP: 7.5 mg/dL
  K: 4.1 meq/L
  LDH: 187.8 IU/L
  Na: 142.4 meq/L
  RALB: 3 g/dL
  TBIL: 0.008 mg/dL
  TC: 83.2 mg/dL
  TG: 81.6 mg/dL
  TP: 5.3 g/dL
  gamma-GTP: 1.4 IU/L
[2]
  TERMINAL_BW: 243.9 g
  APTT: 20 s
  Bas: 0%
  Eos: 1%
  Fbg: 338 mg/dL
  Ht: 39%
  MCH: 21.1 pg
  MCHC: 35.4%
  MCV: 59.7 fL
  Mono: 2.6%
  RBC: 653.4 x10_4/ul
  Ret: 5.9%
  KIDNEY_L: 1.1 g
  KIDNEY_R: 1.1 g
  KIDNEY_TOTAL: 2.2 g
  ALP: 1704.2 IU/L
  ALT: 44 IU/L
  AST: 67.4 IU/L
  BUN: 20.4 mg/dL
  CRE: 0.2 mg/dL
  Ca: 10.7 mg/dL
  Cl: 110.8 meq/L
  DBIL: 0 mg/dL
  GLC: 186.8 mg/dL
  IP: 6.7 mg/dL
  K: 4.2 meq/L
  LDH: 179 IU/L
  Na: 143.6 meq/L
  PL: 140.2 mg/dL
  RALB: 2.9 g/dL
  TBIL: 0 mg/dL
  TC: 69.8 mg/dL
  TG: 133.8 mg/dL
  TP: 5.1 g/dL
  gamma-GTP: 1.4 IU/L
[3]
  TERMINAL_BW: 281.3 g
  APTT: 22 s
  Bas: 0%
  Eos: 0.6%
  Fbg: 302.4 mg/dL
  Ht: 40.2%
  MCH: 20.4 pg
  MCHC: 35.2%
  MCV: 57.9 fL
  Mono: 1.4%
  Neu: 17.6%
  RBC: 696.2 x10_4/ul
  Ret: 4.5%
  KIDNEY_L: 1.2 g
  KIDNEY_R: 1.2 g
  KIDNEY_TOTAL: 2.5 g
  ALP: 1326.4 IU/L
  ALT: 42 IU/L
  AST: 65.6 IU/L
  BUN: 19 mg/dL
  CRE: 0.2 mg/dL
  Ca: 10.6 mg/dL
  Cl: 107.4 meq/L
  DBIL: 0 mg/dL
  GLC: 184.4 mg/dL
  IP: 6.7 mg/dL
  K: 3.7 meq/L
  LDH: 139 IU/L
  Na: 143.8 meq/L
  PL: 142.4 mg/dL
  RALB: 3.1 g/dL
  TBIL: 0.002 mg/dL
  TC: 69.8 mg/dL
  TP: 5.6 g/dL
  gamma-GTP: 2 IU/L
[4]
  TERMINAL_BW: 340.5 g
  APTT: 24.7 s
  Bas: 0%
  Eos: 0.8%
  Fbg: 312.2 mg/dL
  Ht: 42%
  MCH: 19.3 pg
  MCHC: 34.7%
  Mono: 1.8%
  PT: 16.5 s
  RBC: 757.6 x10_4/ul
  Ret: 3%
  KIDNEY_L: 1.4 g
  KIDNEY_R: 1.4 g
  KIDNEY_TOTAL: 2.8 g
  ALP: 1449.8 IU/L
  ALT: 44.2 IU/L
  AST: 69 IU/L
  BUN: 17.2 mg/dL
  CRE: 0.2 mg/dL
  Cl: 108.2 meq/L
  DBIL: 0 mg/dL
  GLC: 179.6 mg/dL
  IP: 5.4 mg/dL
  K: 3.8 meq/L
  LDH: 136.8 IU/L
  Na: 141.8 meq/L
  PL: 159 mg/dL
  RALB: 3.2 g/dL
  TBIL: 0.002 mg/dL
  TC: 81.4 mg/dL
  TG: 136.4 mg/dL
  TP: 6 g/dL
  gamma-GTP: 2.4 IU/L
[5]
  TERMINAL_BW: 195.4 g
  APTT: 18.7 s
